Laboratory results taken from PMC11191095, “QSAR Reveals Decreased Lipophilicity of Polar Residues Determines the Selectivity of Antimicrobial Peptide Activity” (ACS Omega, 2024).
Where a SMILES comes first, the peptide text is derived from it.

Assays:
Experiment in all cases: microbe, parasite or virus in culture
E. coli NCTC 12923 = assay type: cell-based, Escherichia coli; conditions: E. coli NCTC 12923 (S)
Procedure, shortened: (§1)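 Peptides 128→2 μg/mL, 2-fold series; inoculum ~5 × 10^5 CFU/mL from overnight culture (OD600 0.01, mixed 1:1). MHB non-cation-adjusted for bacteria, RPMI 1640 + 2% glucose for fungi. 37 °C, 20 h, OD600. MIC50/MIC90 at 50%/90% inhibition; n ≥ 3.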

E. coli LEC001 = assay type: cell-based, Escherichia coli; conditions: E. coli LEC001 (R)
Procedure, shortened: as §1

C. albicans NCPF 3281 = assay type: cell-based; conditions: C. albicans NCPF 3281
Procedure, shortened: as §1

C. krusei NCPF 3876 = assay type: cell-based; conditions: C. krusei NCPF 3876
Procedure, shortened: as §1

[1] = system: C. parapsilosis NCPF 3209; assay type: cell-based; conditions: C. parapsilosis NCPF 3209
Procedure, shortened: as §1

C. tropicalis NCPF 8760 = assay type: cell-based; conditions: C. tropicalis NCPF 8760
Procedure, shortened: as §1

C. glabrata NCPF 8018 = assay type: cell-based; conditions: C. glabrata NCPF 8018
Procedure, shortened: as §1

P. aeruginosa NCTC 13437 = assay type: cell-based, Pseudomonas aeruginosa; conditions: P. aeruginosa NCTC 13437 (R)
Procedure, shortened: as §1

A. baumannii AYE = assay type: cell-based, Acinetobacter baumannii; conditions: A. baumannii AYE (R)
Procedure, shortened: as §1

A. baumannii ATCC 17978 = assay type: cell-based, Acinetobacter baumannii; conditions: A. baumannii ATCC 17978 (S)
Procedure, shortened: as §1

[2] = system: S. aureus (MRSA) NCTC 13616; assay type: cell-based, Staphylococcus aureus; conditions: S. aureus (MRSA) NCTC 13616 (R)
Procedure, shortened: as §1

S. aureus (MRSA) USA300 = assay type: cell-based, Staphylococcus aureus; conditions: S. aureus (MRSA) USA300 (R)
Procedure, shortened: as §1

S. aureus (MRSA) 1199B = assay type: cell-based, Staphylococcus aureus; conditions: S. aureus (MRSA) 1199B (R)
Procedure, shortened: as §1

[3] = system: S. aureus (MSSA) ATCC 9144; assay type: cell-based, Staphylococcus aureus; conditions: S. aureus (MSSA) ATCC 9144 (S)
Procedure, shortened: as §1

K. pneumoniae NCTC 13368 = assay type: cell-based, Klebsiella pneumoniae; conditions: K. pneumoniae NCTC 13368 (R)
Procedure, shortened: as §1

K. pneumoniae M6 = assay type: cell-based, Klebsiella pneumoniae; conditions: K. pneumoniae M6 (S)
Procedure, shortened: as §1

[4] = MHB, 37 °C, 20 h, OD600, min. three biological repeats
[5] = 50% growth inhibition, RPMI 1640 + 2% glucose, 37 °C, 20 h
[6] = 90% growth inhibition, RPMI 1640 + 2% glucose, 37 °C, 20 h

CC[C@H](C)[C@H](NC(=O)CNC(=O)[C@@H](N)CCCCN)C(=O)N[C@@H](CCCNC(=N)N)C(=O)NCC(=O)N[C@@H](Cc1ccc(O)cc1)C(=O)N[C@@H](CCCCN)C(=O)NCC(=O)NCC(=O)N[C@@H](Cc1ccc(O)cc1)C(=O)N[C@@H](CS)C(=O)N[C@@H](CCCCN)C(=O)NCC(=O)N[C@@H](C)C(=O)N[C@@H](Cc1ccccc1)C(=O)N[C@@H](CCCCN)C(=O)N[C@@H](CCC(N)=O)C(=O)N[C@H](C(=O)N[C@@H](CS)C(=O)N[C@@H](CCCCN)C(=O)N[C@@H](CS)C(=O)N[C@@H](Cc1ccc(O)cc1)C(=O)O)[C@@H](C)O [Os] (H-KGIRGYKGGYCKGAFKQTCKCY-OH; N-terminus and C-terminus assumed)
> 128 µg/mL: Modal MIC (E. coli NCTC 12923; MHB, ~5×10^5 CFU/mL, 37 °C, 20 h, OD600, min. three biological repeats) | Modal MIC (E. coli LEC001; [4]) | Modal MIC50 (C. albicans NCPF 3281; [5]) | Modal MIC90 (C. albicans NCPF 3281; [6]) | Modal MIC50 (C. krusei NCPF 3876; [5]) | Modal MIC90 (C. krusei NCPF 3876; [6]) | Modal MIC50 [1, 5] | Modal MIC90 [1, 6] | Modal MIC50 (C. tropicalis NCPF 8760; [5]) | Modal MIC90 (C. tropicalis NCPF 8760; [6]) | Modal MIC50 (C. glabrata NCPF 8018; [5]) | Modal MIC90 (C. glabrata NCPF 8018; [6]) | Modal MIC (P. aeruginosa NCTC 13437; [4]) | Modal MIC (A. baumannii AYE; [4]) | Modal MIC (A. baumannii ATCC 17978; [4]) | Modal MIC [2, 4] | Modal MIC (S. aureus (MRSA) USA300; [4]) | Modal MIC (S. aureus (MRSA) 1199B; [4]) | Modal MIC [3, 4] | Modal MIC (K. pneumoniae NCTC 13368; [4]) | Modal MIC (K. pneumoniae M6; [4])
> 51.7 µM: Modal MIC (E. coli NCTC 12923; shown in µM) | Modal MIC (E. coli LEC001; shown in µM) | Modal MIC50 (C. albicans NCPF 3281; shown in µM) | Modal MIC90 (C. albicans NCPF 3281; shown in µM) | Modal MIC50 (C. krusei NCPF 3876; shown in µM) | Modal MIC90 (C. krusei NCPF 3876; shown in µM) | Modal MIC50 ([1]; shown in µM) | Modal MIC90 ([1]; shown in µM) | Modal MIC50 (C. tropicalis NCPF 8760; shown in µM) | Modal MIC90 (C. tropicalis NCPF 8760; shown in µM) | Modal MIC50 (C. glabrata NCPF 8018; shown in µM) | Modal MIC90 (C. glabrata NCPF 8018; shown in µM) | Modal MIC (P. aeruginosa NCTC 13437; shown in µM) | Modal MIC (A. baumannii AYE; shown in µM) | Modal MIC (A. baumannii ATCC 17978; shown in µM) | Modal MIC ([2]; shown in µM) | Modal MIC (S. aureus (MRSA) USA300; shown in µM) | Modal MIC (S. aureus (MRSA) 1199B; shown in µM) | Modal MIC ([3]; shown in µM) | Modal MIC (K. pneumoniae NCTC 13368; shown in µM) | Modal MIC (K. pneumoniae M6; shown in µM)
